Measurements taken from US10532984B2, “Pyridonecarboxylic acid derivative or salt thereof” (priority 2016, dated 2020).
Converted amounts (≈) assume the structure as drawn.

Columns and labels:
MRSA9522 = assay: Antibacterial effect, MIC by standard method of Japanese Society of Chemotherapy; type: cell-based, methicillin-resistant Staphylococcus aureus; settings: Staphylococcus aureus
Method: (§1) The minimum inhibitory concentrations (MIC: μg/mL) of the compounds set forth in Table 1 were measured according to the standard method of Japanese Society of Chemotherapy (Japanese Journal of Chemotherapy, 56 (1), 49, 2008). […] P. aeruginosa is a clinical isolate given by Kameda Medical Center. C. difficile is a clinical isolate purchased from International Health Management Associates, Inc. (IHMA).

MRSA9532 = assay: as above; type: cell-based, methicillin-resistant Staphylococcus aureus; settings: Staphylococcus aureus
Method: as §1

C. difficile 2015-12 = assay: as above; type: cell-based; settings: Clostridioides difficile, 201512; C. difficile 2015-12, clinical isolate
Method: as §1

C. difficile 2015-13 = assay: as above; type: cell-based; settings: Clostridioides difficile, 201513; C. difficile 2015-13, clinical isolate
Method: as §1

P. aeruginosa 2014-16 = assay: as above; type: cell-based; settings: Pseudomonas aeruginosa, 201416; P. aeruginosa 2014-16, clinical isolate
Method: as §1

P. aeruginosa 08-05 = assay: Combined antibacterial effect with drug efflux pump inhibitor PAβN, broth microdilution MIC; type: cell-based; settings: for P. aeruginosa 08-05 MIC ratio: P. aeruginosa 08-05, PAβN(−) MIC/PAβN(+) MIC; for MIC value P. aeruginosa 08-05 PAβN +: P. aeruginosa 08-05, with PAβN 50 μg/mL; for MIC value P. aeruginosa 08-05 PAβN −: P. aeruginosa 08-05, without PAβN
Method: (§2) The method used was a broth microdilution method according to the standard method of the Japanese Society of Chemotherapy (Chemotherapy, 38 (1), 102, 1990). In the condition which added H-Phe-Arg-βNA, 2HCl (PAβN) (50 μg/mL) as drug efflux pump inhibitor, the minimum inhibitory concentrations (MIC: μg/mL) was measured. The minimum inhibitory concentrations (MIC: μg/mL) of the conventional antimicrobial agents levofloxacin and cefepime as a positive control compound and a negative control compound for the evaluation were also measured similarly. P. aeruginosa is a clinical isolate given by […] Medical Center.

P. aeruginosa 2014-17 = assay: as above; type: cell-based; settings: for MIC value P. aeruginosa 2014-17 PAβN +: P. aeruginosa 2014-17, with PAβN 50 μg/mL; for MIC value P. aeruginosa 2014-17 PAβN −: P. aeruginosa 2014-17, without PAβN
Method: as §2

P. aeruginosa PA01 = assay: as above; type: cell-based; settings: for MIC value P. aeruginosa PA01 PAβN +: P. aeruginosa PA01, with PAβN 50 μg/mL; for MIC value P. aeruginosa PA01 PAβN −: P. aeruginosa PA01, without PAβN
Method: as §2

Row | SMILES | MIC (MRSA9522) | MIC (MRSA9532) | MIC (C. difficile 2015-12) | MIC (C. difficile 2015-13) | MIC (P. aeruginosa 2014-16) | P. aeruginosa 08-05 MIC ratio (P. aeruginosa 08-05) | MIC value P. aeruginosa 08-05 PAβN + (P. aeruginosa 08-05) | MIC value P. aeruginosa 08-05 PAβN − (P. aeruginosa 08-05) | MIC value P. aeruginosa 2014-17 PAβN + (P. aeruginosa 2014-17) | MIC value P. aeruginosa 2014-17 PAβN − (P. aeruginosa 2014-17) | MIC value P. aeruginosa PA01 PAβN + (P. aeruginosa PA01) | MIC value P. aeruginosa PA01 PAβN − (P. aeruginosa PA01)
1 | CO/N=C(\C(=O)N[C@@H]1C(=O)N2C(C(=O)[O-])=C(C[N+]3(C)CCCC3)CS[C@H]12)c1csc(N)n1 [Cefepime, cefepime, reference compound] | – | – | – | – | – | 4 | 2 µg/mL | 8 µg/mL | 16 µg/mL | 64 µg/mL | 0.5 µg/mL | 1 µg/mL
2 | CNC1CN(c2c(F)cc3c(=O)c(C(=O)O)cn(-c4cc(N)c(F)cc4F)c3c2Cl)C1 [Comparative Compound 2, 1-(5-amino-2,4-difluorophenyl)-8-chloro-6-fluoro-7-(3-methylaminoazetidin-1-yl)-4-oxo-1,4-dihydroquinoline-3-carboxylic acid] | 1 µg/mL (≈ 2.21 µM) | 2 µg/mL (≈ 4.42 µM) | 8 µg/mL (≈ 17.7 µM) | 4 µg/mL (≈ 8.83 µM) | 16 µg/mL (≈ 35.3 µM) | – | – | – | – | – | – | –
3 | Nc1cc(-n2cc(C(=O)O)c(=O)c3cc(F)c(N4CC(N)C4)c(Cl)c32)c(F)cc1F [Comparative Compound 1, 7-(3-Aminoazetidin-1-yl)-1-(5-amino-2,4-difluorophenyl)-8-chloro-6-fluoro-4-oxo-1,4-dihydroquinoline-3-carboxylic acid] | 4 µg/mL (≈ 9.12 µM) | 4 µg/mL (≈ 9.12 µM) | 16 µg/mL (≈ 36.5 µM) | 8 µg/mL (≈ 18.2 µM) | 8 µg/mL (≈ 18.2 µM) | – | – | – | – | – | – | –
4 | O=C(O)c1cn(C2CC2)c2cc(N3CCNCC3)c(F)cc2c1=O [Ciprofloxacin, ciprofloxacin] | 128 µg/mL (≈ 386 µM) | > 128 µg/mL | – | – | – | – | – | – | – | – | – | –

The remaining lines, values ahead:

Row | MIC (MRSA9522) | MIC (MRSA9532) | MIC (C. difficile 2015-12) | MIC (C. difficile 2015-13) | MIC (P. aeruginosa 2014-16) | P. aeruginosa 08-05 MIC ratio (P. aeruginosa 08-05) | MIC value P. aeruginosa 08-05 PAβN + (P. aeruginosa 08-05) | MIC value P. aeruginosa 08-05 PAβN − (P. aeruginosa 08-05) | MIC value P. aeruginosa 2014-17 PAβN + (P. aeruginosa 2014-17) | MIC value P. aeruginosa 2014-17 PAβN − (P. aeruginosa 2014-17) | MIC value P. aeruginosa PA01 PAβN + (P. aeruginosa PA01) | MIC value P. aeruginosa PA01 PAβN − (P. aeruginosa PA01) | SMILES
5 | > 128 µg/mL | > 128 µg/mL | > 128 µg/mL | > 128 µg/mL | > 128 µg/mL | 32 | 0.12 µg/mL | 4 µg/mL | 1 µg/mL | 32 µg/mL | 0.06 µg/mL | 0.5 µg/mL | C[C@H]1COc2c(N3CCN(C)CC3)c(F)cc3c(=O)c(C(=O)O)cn1c23 [Levofloxacin, levofloxacin, reference compound]
6 | 1 µg/mL (≈ 2.15 µM) | 1 µg/mL (≈ 2.15 µM) | 0.12 µg/mL (≈ 0.258 µM) | 0.06 µg/mL (≈ 0.129 µM) | 4 µg/mL (≈ 8.59 µM) | – | – | – | – | – | – | – | Cc1c(F)c(N2CC(O)C2)c(Cl)c2c1c(=O)c(C(=O)O)cn2-c1cc(N)c(F)cc1CO [Example 113, 1-[5-Amino-4-fluoro-2-(hydroxymethyl)phenyl]-8-chloro-6-fluoro-7-(3-hydroxyazetidin-1-yl)-5-methyl-4-oxo-1,4-dihydroquinoline-3-carboxylic acid]
7 | 1 µg/mL (≈ 2.09 µM) | 1 µg/mL (≈ 2.09 µM) | 1 µg/mL (≈ 2.09 µM) | 0.5 µg/mL (≈ 1.04 µM) | 2 µg/mL (≈ 4.18 µM) | 8 | 0.06 µg/mL | 0.5 µg/mL | 0.25 µg/mL | 4 µg/mL | 0.016 µg/mL | 0.12 µg/mL | CNC1CN(c2c(F)c(C)c3c(=O)c(C(=O)O)cn(-c4cc(N)c(F)cc4CO)c3c2Cl)C1 [Example 104, 1-[5-Amino-4-fluoro-2-(hydroxymethyl)phenyl]-8-chloro-6-fluoro-5-methyl-7-(3-methylaminoazetidin-1-yl)-4-oxo-1,4-dihydroquinoline-3-carboxylic acid]
8 | – | – | – | – | – | 8 | 0.06 µg/mL | 0.5 µg/mL | 0.25 µg/mL | 2 µg/mL | 0.016 µg/mL | 0.12 µg/mL | Cc1c(F)c(N2CC(N)C2)c(C)c2c1c(=O)c(C(=O)O)cn2-c1cc(N)c(F)cc1CO [Example 100, 7-(3-Aminoazetidin-1-yl)-1-[5-amino-4-fluoro-2-(hydroxymethyl)phenyl]-5,8-dimethyl-6-fluoro-4-oxo-1,4-dihydroquinoline-3-carboxylic acid]
9 | – | – | – | – | – | 4 | 0.25 µg/mL | 1 µg/mL | 4 µg/mL | 16 µg/mL | 0.25 µg/mL | 0.25 µg/mL | CNC1CN(c2c(F)cc3c(=O)c(C(=O)O)cn(-c4cc(N)c(F)cc4CO)c3c2C)C1 [Example 70]
